Experimental findings from patent publication US20250059171A1 (Hoffmann-La Roche Inc., priority 2021, published 2025) are described below.

In one assay the target is MERS-CoV 3CLpro (Middle East respiratory syndrome-related coronavirus, UniProt K9N7C7). The assay is described as follows: biochemical.
The target of a further assay is SARS-CoV-2 3CLpro (Severe acute respiratory syndrome coronavirus 2, UniProt P0DTD1). The assay is described as follows: biochemical.
The next assay concerns the target HCoV-229E 3CLpro (Human coronavirus 229E, UniProt P0C6X1). Kind of assay: HCoV-229E 3CLpro inhibition assay (FRET). The assay is classed as biochemical.
The next assay addresses SARS-CoV 3CLpro (Severe acute respiratory syndrome coronavirus, UniProt P0C6X7). The assay is described as follows: biochemical.

Sequence of MERS-CoV 3CLpro (K9N7C7 3248-3553): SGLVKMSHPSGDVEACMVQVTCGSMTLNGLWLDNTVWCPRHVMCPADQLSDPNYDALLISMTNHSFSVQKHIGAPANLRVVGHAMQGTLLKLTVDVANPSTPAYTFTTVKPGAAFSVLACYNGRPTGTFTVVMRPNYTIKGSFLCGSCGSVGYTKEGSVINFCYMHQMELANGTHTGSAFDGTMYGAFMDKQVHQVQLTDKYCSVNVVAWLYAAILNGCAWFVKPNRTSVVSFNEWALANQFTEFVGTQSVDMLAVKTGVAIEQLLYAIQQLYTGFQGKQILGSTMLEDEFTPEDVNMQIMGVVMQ
Sequence of HCoV-229E 3CLpro (P0C6X1 2966-3267): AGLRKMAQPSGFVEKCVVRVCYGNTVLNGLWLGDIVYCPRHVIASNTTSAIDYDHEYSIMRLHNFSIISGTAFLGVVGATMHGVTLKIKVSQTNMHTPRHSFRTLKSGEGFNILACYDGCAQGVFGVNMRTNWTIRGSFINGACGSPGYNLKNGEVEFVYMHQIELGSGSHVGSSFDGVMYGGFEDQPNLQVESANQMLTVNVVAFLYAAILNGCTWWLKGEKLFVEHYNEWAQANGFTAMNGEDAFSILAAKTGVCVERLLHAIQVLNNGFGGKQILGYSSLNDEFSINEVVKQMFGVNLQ

In the case of `CC(C)(C)[C@H](NC(=O)C(Cl)Cl)C(=O)N1C[C@@H]2CCC[C@@H]2[C@H]1C(=O)NN(C[C@@H]1CCNC1=O)C(=O)[C@H](F)Cl` [Example 70, N-[(1S)-1-[(3S,3aS,6aR)-3-[[[(2R)-2-chloro-2-fluoro-acetyl]-[[(3S)-2-oxopyrrolidin-3-yl]methyl]amino]carbamoyl]-3,3a,4,5,6,6a-hexahydro-1H-cyclopenta[c]pyrrole-2-carbonyl]-2,2-dimethyl-propyl]-2,2-dichloro-acetamide], the IC50 at MERS-CoV 3CLpro turned out to be 101 nM; at SARS-CoV-2 3CLpro, 7 nM; on HCoV-229E 3CLpro, 30 nM; on SARS-CoV 3CLpro, 16 nM.
The matching figures for `CC(C)(C)[C@H](NC(=O)C(F)(F)C(F)(F)F)C(=O)N1C[C@@H]2CCC[C@@H]2[C@H]1C(=O)NN(C[C@@H]1CCNC1=O)C(=O)[C@H](F)Cl` [Example 71, N-[(1S)-1-[(3S,3aS,6aR)-3-[[[(2R)-2-chloro-2-fluoro-acetyl]-[[(3S)-2-oxopyrrolidin-3-yl]methyl]amino]carbamoyl]-3,3a,4,5,6,6a-hexahydro-1H-cyclopenta[c]pyrrole-2-carbonyl]-2,2-dimethyl-propyl]-2,2,3,3,3-pentafluoro-propanamide]: 41 nM, 7 nM, 19 nM and 10 nM.
Taken in the same sequence, the figures for `CC[C@H](NC(=O)C(F)(F)F)C(=O)N1C[C@@H]2CCC[C@@H]2[C@H]1C(=O)NN(C[C@@H]1CCNC1=O)C(=O)[C@H](F)Cl` [Example 72, N-[(1S)-1-[(3S,3aS,6aR)-3-[[[(2R)-2-chloro-2-fluoro-acetyl]-[[(3S)-2-oxopyrrolidin-3-yl]methyl]amino]carbamoyl]-3,3a,4,5,6,6a-hexahydro-1H-cyclopenta[c]pyrrole-2-carbonyl]propyl]-2,2,2-trifluoro-acetamide] were 58 nM, 8 nM, 23 nM and 11 nM.
For `CC[C@@H](C)[C@H](NC(=O)C(F)(F)F)C(=O)N1C[C@@H]2CCC[C@@H]2[C@H]1C(=O)NN(C[C@@H]1CCNC1=O)C(=O)[C@H](F)Cl` [Example 73, N-[(1S,2R)-1-[(3S,3aS,6aR)-3-[[[(2R)-2-chloro-2-fluoro-acetyl]-[[(3S)-2-oxopyrrolidin-3-yl]methyl]amino]carbamoyl]-3,3a,4,5,6,6a-hexahydro-1H-cyclopenta[c]pyrrole-2-carbonyl]-2-methyl-butyl]-2,2,2-trifluoro-acetamide], the IC50 is 110 nM on MERS-CoV 3CLpro, 33 nM on SARS-CoV-2 3CLpro, 40 nM against HCoV-229E 3CLpro and 12 nM on SARS-CoV 3CLpro.
The matching figures for `O=C1NCC[C@H]1CN(NC(=O)[C@@H]1[C@H]2CCC[C@H]2CN1C(=O)[C@@H](NC(=O)C(F)(F)F)C1CCC1)C(=O)[C@H](F)Cl` [Example 74, N-[(1S)-2-[(3S,3aS,6aR)-3-[[[(2R)-2-chloro-2-fluoro-acetyl]-[[(3S)-2-oxopyrrolidin-3-yl]methyl]amino]carbamoyl]-3,3a,4,5,6,6a-hexahydro-1H-cyclopenta[c]pyrrol-2-yl]-1-cyclobutyl-2-oxo-ethyl]-2,2,2-trifluoro-acetamide]: 358 nM, 7 nM, 117 nM and 45 nM.
On to `C[C@H](NC(=O)C(F)(F)F)C(=O)N1C[C@@H]2CCC[C@@H]2[C@H]1C(=O)NN(C[C@@H]1CCNC1=O)C(=O)[C@H](F)Cl` [Example 75, N-[(1S)-2-[(3S,3aS,6aR)-3-[[[(2R)-2-chloro-2-fluoro-acetyl]-[[(3S)-2-oxopyrrolidin-3-yl]methyl]amino]carbamoyl]-3,3a,4,5,6,6a-hexahydro-1H-cyclopenta[c]pyrrol-2-yl]-1-methyl-2-oxo-ethyl]-2,2,2-trifluoro-acetamide], for which the IC50 was determined as 83 nM against MERS-CoV 3CLpro, 12 nM at SARS-CoV-2 3CLpro, 33 nM on HCoV-229E 3CLpro and 12 nM against SARS-CoV 3CLpro.
As for `CC[C@@H](C)[C@H](NC(=O)C(C)(F)F)C(=O)N1C[C@@H]2CCC[C@@H]2[C@H]1C(=O)NN(C[C@@H]1CCNC1=O)C(=O)[C@H](F)Cl` [Example 76, N-[(1S,2R)-1-[(3S,3aS,6aR)-3-[[[(2R)-2-chloro-2-fluoro-acetyl]-[[(3S)-2-oxopyrrolidin-3-yl]methyl]amino]carbamoyl]-3,3a,4,5,6,6a-hexahydro-1H-cyclopenta[c]pyrrole-2-carbonyl]-2-methyl-butyl]-2,2-difluoro-propanamide], the 50% inhibitory concentration (IC50) came out at 194 nM on MERS-CoV 3CLpro, 8 nM against SARS-CoV-2 3CLpro, 88 nM at HCoV-229E 3CLpro and 15 nM against SARS-CoV 3CLpro.
The matching figures for `CCC(CC)[C@H](NC(=O)C(F)(F)F)C(=O)N1C[C@@H]2CCC[C@@H]2[C@H]1C(=O)NN(C[C@@H]1CCNC1=O)C(=O)[C@H](F)Cl` [Example 77, N-[(1S)-1-[(3S,3aS,6aR)-3-[[[(2R)-2-chloro-2-fluoro-acetyl]-[[(3S)-2-oxopyrrolidin-3-yl]methyl]amino]carbamoyl]-3,3a,4,5,6,6a-hexahydro-1H-cyclopenta[c]pyrrole-2-carbonyl]-2-ethyl-butyl]-2,2,2-trifluoro-acetamide]: 69 nM, 7 nM, 28 nM and 12 nM.
On to `CCC[C@H](NC(=O)C(F)(F)F)C(=O)N1C[C@@H]2CCC[C@@H]2[C@H]1C(=O)NN(C[C@@H]1CCNC1=O)C(=O)[C@H](F)Cl` [Example 78, N-[(1S)-1-[(3S,3aS,6aR)-3-[[[(2R)-2-chloro-2-fluoro-acetyl]-[[(3S)-2-oxopyrrolidin-3-yl]methyl]amino]carbamoyl]-3,3a,4,5,6,6a-hexahydro-1H-cyclopenta[c]pyrrole-2-carbonyl]butyl]-2,2,2-trifluoro-acetamide], for which the IC50 at MERS-CoV 3CLpro is 57 nM; at SARS-CoV-2 3CLpro it was 9 nM; on HCoV-229E 3CLpro, 23 nM; against SARS-CoV 3CLpro, 10 nM.
Consider `CC[C@H](C)[C@H](NC(=O)C1(F)CC1)C(=O)N1C[C@@H]2CCC[C@@H]2[C@H]1C(=O)NN(C[C@@H]1CCNC1=O)C(=O)[C@H](F)Cl` [Example 79, N-[(1S,2S)-1-[(3S,3aS,6aR)-3-[[[(2R)-2-chloro-2-fluoro-acetyl]-[[(3S)-2-oxopyrrolidin-3-yl]methyl]amino]carbamoyl]-3,3a,4,5,6,6a-hexahydro-1H-cyclopenta[c]pyrrole-2-carbonyl]-2-methyl-butyl]-1-fluoro-cyclopropanecarboxamide], for which the IC50 against MERS-CoV 3CLpro was 114 nM; at SARS-CoV-2 3CLpro it was 7.1 nM; at HCoV-229E 3CLpro, 39 nM; at SARS-CoV 3CLpro it was 11 nM.
Taken in the same sequence, the figures for `CC[C@H](C)[C@H](NC(=O)c1ccccc1)C(=O)N1C[C@@H]2CCC[C@@H]2[C@H]1C(=O)NN(C[C@@H]1CCNC1=O)C(=O)[C@H](F)Cl` [Example 80, N-[(1S,2S)-1-[(3S,3aS,6aR)-3-[[[(2R)-2-chloro-2-fluoro-acetyl]-[[(3S)-2-oxopyrrolidin-3-yl]methyl]amino]carbamoyl]-3,3a,4,5,6,6a-hexahydro-1H-cyclopenta[c]pyrrole-2-carbonyl]-2-methyl-butyl]benzamide] were 58 nM, 10 nM, 20 nM and 11 nM.
Taken in the same sequence, the figures for `CC[C@H](C)[C@H](NC(C)=O)C(=O)N1C[C@@H]2CCC[C@@H]2[C@H]1C(=O)NN(C[C@@H]1CCNC1=O)C(=O)[C@H](F)Cl` [Example 81, N-[(1S,2S)-1-[(3S,3aS,6aR)-3-[[[(2R)-2-chloro-2-fluoro-acetyl]-[[(3S)-2-oxopyrrolidin-3-yl]methyl]amino]carbamoyl]-3,3a,4,5,6,6a-hexahydro-1H-cyclopenta[c]pyrrole-2-carbonyl]-2-methyl-butyl]acetamide] were 93 nM, 9 nM, 45 nM and 15 nM.
The matching figures for `CC(C)(C)[C@H](NC(=O)C1(F)CC1)C(=O)N1C[C@@H]2CCC[C@@H]2[C@H]1C(=O)NN(C[C@@H]1CCNC1=O)C(=O)[C@H](F)Cl` [Example 82, N-[(1S)-1-[(3S,3aS,6aR)-3-[[[(2R)-2-chloro-2-fluoro-acetyl]-[[(3S)-2-oxopyrrolidin-3-yl]methyl]amino]carbamoyl]-3,3a,4,5,6,6a-hexahydro-1H-cyclopenta[c]pyrrole-2-carbonyl]-2,2-dimethyl-propyl]-1-fluoro-cyclopropanecarboxamide]: 84 nM, 8 nM, 33 nM and 12 nM.
For `CC(C)(C)[C@H](NC(=O)C1(F)CC1)C(=O)N1C[C@H]2[C@@H]([C@H]1C(=O)NN(C[C@@H]1CCNC1=O)C(=O)[C@H](F)Cl)C2(C)C` [Example 83, N-[(1S)-1-[(1R,2S,5S)-2-[[[(2R)-2-chloro-2-fluoro-acetyl]-[[(3S)-2-oxopyrrolidin-3-yl]methyl]amino]carbamoyl]-6,6-dimethyl-3-azabicyclo[3.1.0]hexane-3-carbonyl]-2,2-dimethyl-propyl]-1-fluoro-cyclopropanecarboxamide], the IC50 came out at 97 nM at MERS-CoV 3CLpro, 9 nM against SARS-CoV-2 3CLpro, 31 nM against HCoV-229E 3CLpro and 10 nM against SARS-CoV 3CLpro.
Taken in the same sequence, the figures for `CC(F)(F)C(=O)N[C@H](C(=O)N1C[C@H]2[C@@H]([C@H]1C(=O)NN(C[C@@H]1CCNC1=O)C(=O)[C@@H](F)Cl)C2(C)C)C(C)(C)C` [Example 85, N-[(1S)-1-[(1R,2S,5S)-2-[[[(2S)-2-chloro-2-fluoro-acetyl]-[[(3S)-2-oxopyrrolidin-3-yl]methyl]amino]carbamoyl]-6,6-dimethyl-3-azabicyclo[3.1.0]hexane-3-carbonyl]-2,2-dimethyl-propyl]-2,2-difluoro-propanamide] were 69 nM, 12 nM, 21 nM and 12 nM.
